The values that follow come from publication PMC8406801, “Naringenin Inhibits Platelet Activation and Arterial Thrombosis Through Inhibition of Phosphoinositide 3-Kinase and Cyclic Nucleotide Signaling” (Frontiers in Pharmacology, 2021).

Assay [1] deals with VASP Ser239 phosphorylation. Nature of the assay: Immunoblotting of phospho-VASP (Ser239) in ADP-stimulated washed platelets, with or without PKA, PKG, PKC inhibitors. It is filed as cell-based, rat. The following applies: inhibitor 5 μmol/L before treatment with naringenin, ADP 10 μmol/L. The protocol: For in vitro platelet aggregation, aliquots of washed platelets were preincubated with vehicle or various concentrations of naringenin for 5 min and stimulated with ADP (10 μmol/L) under stirring at 37°C for 5 min. For ex vivo platelet aggregation, PRP was incubated at 37°C for 5 min and stimulated with ADP (5 μmol/L) under stirring at 37 °C. The platelet aggregation was terminated by adding ethylenediaminetetraacetic acid (EDTA; 10 mM). Total protein was prepared using RIPA lysis buffer and protein content was determined by bicinchoninic acid (BCA) protein assay kit. Equal amounts of platelet proteins (30 μg) were separated on 10% SDS polyacrylamide gel electrophoresis (SDS-PAGE) and then transferred to poly vinylidene difluoride (PVDF) membranes and subjected to western blot. Blots were blocked with TBS-Tween 20 containing 5% BSA and probed with primary antibodies diluted in blocking solution at 4°C overnight followed by incubation with the corresponding HRP secondary antibodies. The protein bands were visualized using enhanced chemiluminescence (ECL).
VASP is a substrate for cAMP- and cGMP- dependent protein kinases, which mediate cAMP- and cGMP-dependent inhibitory signaling in platelets, respectively. Increased cAMP levels followed by the activation of cAMP-dependent protein kinase A (PKA) phosphorylates VASP at position Ser157, whereas the elevation of cGMP leads to VASP phosphorylation at position Ser239 by cGMP-dependent protein kinase G (PKG) ([Aszódi et al., 1999]; [Li et al., 2003a]). To further examine whether naringenin modulates cAMP- or cGMP-mediated inhibitory signaling, the phosphorylation of VASP (Ser157 and Ser239) in washed platelets on stimulation with ADP were measured in the absence or presence of naringenin (100, 200, 400, and 800 μM). […] To further confirm the antiplatelet effects of naringenin through PKA-dependent signaling, the effects of naringenin on platelet aggregation were measured in the presence of PKG inhibitor (Rp-8-Br-PET-cGMPS) and PKA inhibitor (H89).
FIGURE 7 Naringenin promotes VASP phosphorylation. The effects of naringenin on phosphorylation of VASP (at positions Ser 157 and Ser239) were measured in washed platelets upon stimulation with ADP (10 μmol/L) by western blotting (A). The blots shown are representative of three separate experiments. The phosphorylation levels were quantified by ImageJ 1.47v software. The level of phosphorylation obtained with vehicle control (0 μM) was taken as 1 (B,C). R represents the phosphorylation level in resting platelets. Data are expressed as means ± SD (n = 3). *p < 0.05, ***p < 0.001 compared with the vehicle control group. VASP phosphorylation at Ser239 was also analyzed in washed platelets incubated with 5 μmol/L PKA (H89), 30 μmol/L PKG (Rp-8-Br-PET-cGMPS), or 5 μmol/L PKC (GF109203X) inhibitors before treatment with naringenin (D). Washed platelets were incubated with vehicle or naringenin (200 μmol/L) at 37°C in the presence or absence of 5 μmol/L PKA (H89) or 30 μmol/L PKG (Rp-8-Br-PET-cGMPS) inhibitors. After treatment, platelets were stimulated with ADP (10 μmol/L) to trigger aggregation (E). Data are expressed as means ± SD (n = 6). ***p < 0.001 compared with the ADP-treated group, ^# p < 0.05, ^### p < 0.001 compared with naringenin alone or H89 alone.
(Immunoblotting shows a protein as a band on a membrane.)

Assay [2] concerns washed rat platelets. Nature of the assay: ADP (10 μM)-induced aggregation of washed rat platelets. It counts as cell-based. The following applies: H89 (5 μM)+ADP (10 μM); Figure 7E.
The subject of assay [3] is washed rat platelets. The assay is described as above. It is filed as cell-based. The following applies: for Aggregation (%): raw data. The protocol: Platelet-rich plasma (PRP) was obtained, and after the addition of 100 ng/ml PGE1, platelets were pelleted at 900 × g for 10 min. […] Washed platelets were preincubated with vehicle (0.4% dimethyl sulfoxide) or various concentrations of naringenin in the presence of 2 mM CaCl2 for 5 min at 37°C, and then further stimulated by ADP (10 μM), thrombin (0.2 U/mL) or collagen (2 μg/ml). The maximum platelet aggregation rate was detected within 5 min with continuous stirring.
Platelet aggregation was induced by ADP using washed platelets and PRP. Washed platelets were preincubated with vehicle (containing 0.4% DMSO) or different doses (100, 200, 400, and 800 μM) of naringenin or naringin for 5 min before activation with ADP (10 μM) for 5 min.
(§1) FIGURE 1 Effects of naringenin and naringin on platelet aggregation. Chemical structure of naringin (A) and naringenin (B). The effects of naringin (C) or naringenin (D) on PRP were measured following stimulation with 10 μmol/L ADP. Rat washed platelet aggregation performed with or without different concentrations of naringin (E) or naringenin (F) was recorded after stimulation with 10 μmol/L ADP. Similarly, Washed platelet aggregation performed with vehicle or various concentrations of naringenin was recorded after stimulation with 0.2 U/mL thrombin (G) or 2 μg/ml collagen (H). WP represents washed platelets. Data are expressed as means ± SD (n = 6), the level of aggregation obtained at 5 min with vehicle-treated samples (0 μM) was taken as 100%. *p < 0.05, **p < 0.01, ***p < 0.001 compared with the vehicle control group.

The subject of assay [4] is PRP (platelet-rich plasma). Nature of the assay: ADP (10 μmol/L)-induced aggregation of PRP in vitro. The following applies: PRP, ADP 10 μmol/L, single replicates; for Aggregation (%): raw data. It counts as cell-based, rat. On the procedure:
Washed rat platelets were prepared as described previously ([Gao et al., 2011]) with a minor modification. Briefly, rat blood was drawn from the abdominal aorta into the siliconized vacutainers containing 1:9 (v/v) 3.8% sodium citrate, supplemented with 100 ng/ml prostaglandin E1 (PGE1) and centrifuged at 300 × g for 6 min at room temperature. Platelet-rich plasma (PRP) was obtained, and after the addition of 100 ng/ml PGE1, platelets were pelleted at 900 × g for 10 min. Platelets were washed once in Tyrode’s buffer (12 mM NaHCO3, 138 mM NaCl, 5.5 mM glucose, 2.9 mM KCl, 2 mM MgCl2, 0.42 mM NaH2PO4, 10 mM HEPES, pH 7.4) containing 100 ng/ml PGE1, and finally resuspended in Tyrode’s buffer containing 0.02 U/mL apyrase to a final concentration of 4×10^8 cells/mL. Washed platelets were preincubated with vehicle (0.4% dimethyl sulfoxide) or various concentrations of naringenin in the presence of 2 mM CaCl2 for 5 min at 37°C, and then further stimulated by ADP (10 μM), thrombin (0.2 U/mL) or collagen (2 μg/ml). The maximum platelet aggregation rate was detected within 5 min with continuous stirring.
Platelet aggregation was induced by ADP using washed platelets and PRP. Washed platelets were preincubated with vehicle (containing 0.4% DMSO) or different doses (100, 200, 400, and 800 μM) of naringenin or naringin for 5 min before activation with ADP (10 μM) for 5 min. […] For example, naringenin, at doses of 100 and 800 μM, decreased ADP-induced platelet aggregation to 54.5 ± 6.2% and 6.3 ± 1.7%, respectively (n = 6; p < 0.001, control group platelet aggregation was taken as 100%) (Figure 1F). […] Because dietary flavonoids have been reported to bind plasma proteins and cause the lowering of inhibitory potency in PRP ([Wright et al., 2013]), the ability of naringenin and naringin on platelet function in PRP was investigated to compare their effects with washed platelets.
as §1

Molecules are shown by their SMILES. Values joined by “and” are separate entries in the source; they are usually repeats but may differ in a detail not shown here. Identical values can stand only once.

Consider `CN(C)CCCn1cc(C2=C(c3c[nH]c4ccccc34)C(=O)NC2=O)c2ccccc21` [GF109203X, reference compound], for which the “naringenin-induced phosphorylation of VASP at Ser239 after kinase inhibitor” value in assay [1] is on record as “only small changes”.
As for `O=S(=O)(NCCNCC=Cc1ccc(Br)cc1)c1cccc2cnccc12` [H89, N-[2-(p-bromocinnamylamino)ethyl]-5-isoquinolinesulfonamide], in assay [2], the “Aggregation (%)” value was 62.7% and 67.1% and 68.1% and 68.8% and 64.1% and 69.2%. In addition, the “level of platelet aggregation, inhibitor alone” value in assay [3] (ADP 10 μmol/L, inhibitor 5 μmol/L, without naringenin) is “did not affect the level of platelet aggregation”. Moreover, in assay [3] (inhibitor 5 μmol/L pre-treatment, naringenin 200 μmol/L, ADP 10 μmol/L), the “platelet aggregation when incubated with naringenin after kinase inhibitor” value was “significantly restored platelet aggregation levels”. The “naringenin-induced phosphorylation of VASP at Ser239 after kinase inhibitor” value in assay [1] is “inhibited the increase in phosphorylation of VASP at Ser239”.
Consider `C[C@@H]1O[C@@H](O[C@H]2[C@H](Oc3cc(O)c4c(c3)O[C@H](c3ccc(O)cc3)CC4=O)O[C@H](CO)[C@@H](O)[C@@H]2O)[C@H](O)[C@H](O)[C@H]1O` [Naringin, naringin, reference compound], for which the activity at 200 µM in assay [3] (Rattus norvegicus, Platelet, washed platelets, ADP 10 μmol/L, compound 200 μM, single replicates, read-out: Aggregation % of control) was 72.6%; in assay [4] (Rattus norvegicus, compound 200 μM, read-out: Aggregation % of control), 95.4%. Moreover, the activity at 400 µM in assay [3] (Rattus norvegicus, Platelet, washed platelets, ADP 10 μmol/L, compound 400 μM, single replicates, read-out: Aggregation % of control) stood at 79.8%; in assay [4] (Rattus norvegicus, compound 400 μM, read-out: Aggregation % of control) it was 97.6%. Moreover, the “ADP-induced platelet aggregation (control group taken as 100%)” value in assay [3] (washed platelets, ADP 10 μM, compound 800 μM, mean ± SD, n = 6) is reported as 70.8 ± 7.1%. Further, the “Aggregation (%)” value in assay [3] (washed platelets, ADP 10 μmol/L, compound 100 μM, single replicates) is 66.8% and 55.6% and 57.3% and 61.8% and 52.0% and 65.0%; in assay [3] (washed platelets, ADP 10 μmol/L, compound 200 μM, single replicates), 51.3% and 57.7% and 55.0% and 59.4% and 50.0% and 54.0%; in assay [3] (washed platelets, ADP 10 μmol/L, compound 400 μM, single replicates), 56.4% and 55.5% and 55.4% and 51.0% and 52.3% and 46.6%; in assay [3] (washed platelets, ADP 10 μmol/L, compound 800 μM, single replicates), 58.1% and 48.7% and 49.2% and 43.6% and 47.5% and 53.0%; in assay [4] (compound 100 μM) it was 56.0% and 55.8% and 53.6% and 54.0% and 60.0%; in assay [4] (compound 200 μM), 54.6% and 53.1% and 52.4% and 49.6% and 54.8%. Also, the “Aggregation (%)” value in assay [4] (compound 400 μM) was 55.9% and 54.0% and 46.2% and 49.8% and 51.2%; in assay [4] (compound 800 μM), 46.8% and 40.4% and 51.9% and 43.4%. Further, the “Aggregation % of control” value in assay [3] (washed platelets, ADP 10 μmol/L, compound 100 μM, single replicates, 100 µM) is 94.6 % of control and 78.7 % of control and 81.1 % of control and 87.5 % of control and 73.6 % of control and 92.0 % of control; in assay [3] (washed platelets, ADP 10 μmol/L, compound 200 μM, single replicates, 200 µM) it was 81.7 % of control and 77.8 % of control and 84.1 % of control and 70.8 % of control and 76.4 % of control; in assay [3] (washed platelets, ADP 10 μmol/L, compound 400 μM, single replicates, 400 µM), 78.6 % of control and 78.4 % of control and 72.2 % of control and 74.0 % of control and 66.0 % of control; in assay [3] (washed platelets, ADP 10 μmol/L, compound 800 μM, single replicates, 800 µM), 82.2 % of control and 68.9 % of control and 69.6 % of control and 61.7 % of control and 67.2 % of control and 75.0 % of control; in assay [4] (compound 100 μM, 100 µM), 97.5 % of control and 100.8 % of control and 93.6 % of control and 94.3 % of control and 104.8 % of control; in assay [4] (compound 200 μM, 200 µM), 92.8 % of control and 97.1 % of control and 91.5 % of control and 86.6 % of control and 95.7 % of control. For the same compound, the “Aggregation % of control” value in assay [4] (compound 400 μM, 400 µM) was 96.9 % of control and 94.3 % of control and 80.7 % of control and 87.0 % of control and 89.4 % of control; in assay [4] (compound 800 μM, 800 µM) it was 85.1 % of control and 85.9 % of control and 70.6 % of control and 90.7 % of control and 75.8 % of control. Besides, in assay [4] (Rattus norvegicus, compound 100 μM, read-out: Aggregation % of control), the activity at 100 µM is 97.8%.
